Results as given in patent US8551984B2, “Aminopyrimidines as SYK inhibitors” (Merck Sharp & Dohme Corp., priority 2009, dated 2013).

biological target: rhSYK (Homo sapiens, UniProt P43405); conditions: read-out: rhSYK Activity; class symbol; where two forms are listed, one symbol per form

IC50	Compound
100 to 1000 nM	OC1(c2ncc(-c3cc(Nc4nccc(C(F)(F)F)n4)ccc3Cl)s2)CCC1 [Example 1-2]
100 to 1000 nM	OC1(c2ncc(-c3cc(Nc4nccc(C(F)(F)F)n4)ccc3OC(F)(F)F)s2)CCC1 [Example 1-3]
100 to 1000 nM	OC1(c2ncc(-c3cc(Nc4nccc(C(F)(F)F)n4)ccc3OCc3ccccc3)s2)CCC1 [Example 1-4]
< 100 nM	Cc1ccc(Nc2nccc(C(F)(F)F)n2)cc1-c1cnc(C2(O)CCC2)s1 [Example 1-6]
< 100 nM	CC(C)(O)c1ncc(-c2cccc(Nc3nccc(C(F)(F)F)n3)c2)s1 [Example 4A-1]
< 100 nM	CC(O)(c1ncc(-c2cccc(Nc3nccc(C(F)(F)F)n3)c2)s1)C(F)(F)F (stereo not drawn) [Example 4A-2]
100 to 1000 nM	CC(C)(C)C(C)(O)c1ncc(-c2cccc(Nc3nccc(C(F)(F)F)n3)c2)s1 (stereo not drawn) [Example 4A-6]
< 100 nM	CCC(O)(c1ncc(-c2cccc(Nc3nccc(C(F)(F)F)n3)c2)s1)C(F)(F)F (stereo not drawn) [Example 4A-9]
1000 to 10000 nM	OC(c1ncc(-c2cccc(Nc3nccc(C(F)(F)F)n3)c2)s1)(C1CCCCC1)C(F)(F)F (stereo not drawn) [Example 4A-11]
100 to 1000 nM	CC(O)(c1ccn(S(=O)(=O)c2ccccc2)c1)c1ncc(-c2cccc(Nc3nccc(C(F)(F)F)n3)c2)s1 (stereo not drawn) [Example 4A-12]
100 to 1000 nM	OC(c1ccc(Br)cn1)(c1ncc(-c2cccc(Nc3nccc(C(F)(F)F)n3)c2)s1)C(F)F (stereo not drawn) [Example 4A-13]
100 to 1000 nM	CN(C)CC(C)(O)c1ncc(-c2cccc(Nc3nccc(C(F)(F)F)n3)c2)s1 (stereo not drawn) [Example 4A-14]
< 100 nM	OC(c1ccoc1)c1ncc(-c2cccc(Nc3nccc(C(F)(F)F)n3)c2)s1 (stereo not drawn) [Example 4A-17]
100 to 1000 nM	OC(c1cccnc1)c1ncc(-c2cccc(Nc3nccc(C(F)(F)F)n3)c2)s1 (stereo not drawn) [Example 4A-18]
100 to 1000 nM	CC(C)n1cc(C(O)c2ncc(-c3cccc(Nc4nccc(C(F)(F)F)n4)c3)s2)cn1 (stereo not drawn) [Example 4A-20]
< 100 nM	Cc1cc(Nc2nccc(C(F)(F)F)n2)cc(-c2cnc(C(C)(O)CF)s2)c1 (stereo not drawn) [Example 4A-33]
< 100 nM	Cc1cc(Nc2nccc(C(F)(F)F)n2)cc(-c2cnc(C(C)(O)c3noc(C)n3)s2)c1 (stereo not drawn) [Example 4A-36]
< 100 nM	Cc1cc(Nc2nccc(C)n2)cc(-c2cnc(C(O)(CO)CO)s2)c1 [Example 4A-39]
< 100 nM	Cc1cc(Nc2nccc(C(F)(F)F)n2)cc(-c2cnc(C(O)CCC#N)s2)c1 (stereo not drawn) [Example 4A-41]

IC50	Compound
< 100 nM	Cc1cc(Nc2nccc(C(F)(F)F)n2)cc(-c2cnc(C(C)(O)CC(C)N)s2)c1 (stereo not drawn) [Example 4A-45]
< 100 nM	Cc1cc(Nc2nccc(C(F)(F)F)n2)cc(-c2cnc(C(C)(O)CCCC(=O)O)s2)c1 (stereo not drawn) [Example 4A-47]
< 100 nM	COC(=O)C(C)(C)C(C)(O)c1ncc(-c2cc(C)cc(Nc3nccc(C(F)(F)F)n3)c2)s1 (stereo not drawn) [Example 4A-48]
< 100 nM	COc1ccsc1C(C)(O)c1ncc(-c2cc(C)cc(Nc3nccc(C(F)(F)F)n3)c2)s1 (stereo not drawn) [Example 4A-50]
< 100 nM	CC(=O)c1ccc(C(C)(O)c2ncc(-c3cc(C)cc(Nc4nccc(C(F)(F)F)n4)c3)s2)cc1 (stereo not drawn) [Example 4A-51]
100 to 1000 nM	COC(=O)c1ccc(C(O)c2ncc(-c3cc(C)cc(Nc4nccc(C(F)(F)F)n4)c3)s2)cc1 (stereo not drawn) [Example 4A-52]
< 100 nM	Cc1cc(Nc2nccc(C(F)(F)F)n2)cc(-c2cnc(C(C)(O)c3cccc(C(=O)O)c3)s2)c1 (stereo not drawn) [Example 4A-53]
100 to 1000 nM	Cc1cc(Nc2nccc(C(F)(F)F)n2)cc(-c2cnc(C(C)(O)c3ccc([N+](=O)[O-])cc3)s2)c1 (stereo not drawn) [Example 4A-56]
< 100 nM	Cc1cc(Nc2nccc(C(F)(F)F)n2)cc(-c2cnc(C(C)(O)c3ccc(CC(=O)O)cc3)s2)c1 (stereo not drawn) [Example 4A-58]
< 100 nM	COC(OC)C(O)(c1ccccn1)c1ncc(-c2cc(C)cc(Nc3nccc(C(F)(F)F)n3)c2)s1 (stereo not drawn) [Example 4A-62]
< 100 nM	Cc1cc(Nc2nccc(C(F)(F)F)n2)cc(-c2cnc(C(C)(O)c3cccc(OCC(=O)O)c3)s2)c1 (stereo not drawn) [Example 4A-67]
< 100 nM	Cc1cc(Nc2nccc(C(F)(F)F)n2)cc(-c2cnc(C(C)(O)c3cncc(Br)c3)s2)c1 (stereo not drawn) [Example 4A-71]
100 to 1000 nM	COC(=O)c1ccc(C(C)(O)c2ncc(-c3cc(C)cc(Nc4nccc(C(F)(F)F)n4)c3)s2)cc1OC (stereo not drawn) [Example 4A-72]
< 100 nM	Cc1cc(Nc2nccc(C(F)(F)F)n2)cc(-c2cnc(C(C)(O)c3cnc4sc(C(=O)O)c(C)c4c3)s2)c1 (stereo not drawn) [Example 4A-74]
< 100 nM	Cc1cc(Nc2nccc(C(F)(F)F)n2)cc(-c2cnc(C(C)(O)c3cccc(-c4cccc(C(=O)O)c4)c3)s2)c1 (stereo not drawn) [Example 4A-75]
< 100 nM	Cc1cc(Nc2nccc(C(F)(F)F)n2)cc(-c2cnc(C(C)(O)c3ccc(N4CC(C(=O)O)CC4=O)cc3)s2)c1 (stereo not drawn) [Example 4A-78]
< 100 nM	O=C(c1ccon1)c1ncc(-c2cccc(Nc3nccc(C(F)(F)F)n3)c2)s1 [Example 4B-5]
100 to 1000 nM	Cc1cc(Nc2nccc(C(F)(F)F)n2)cc(-c2cnc(C3(O)CCCC4(OCCO4)C3(C)C)s2)c1 (stereo not drawn) [Example 4B-28]

Further lines, the compound ahead of its results:

Compound	IC50
Oc1ccc(Nc2nccc(C(F)(F)F)n2)cc1-c1cnc(C2(O)CCC2)s1 [Example 1-5]	< 100 nM
OC(c1ccccc1)(c1ncc(-c2cccc(Nc3nccc(C(F)(F)F)n3)c2)s1)C(F)F (stereo not drawn) [Example 4A-7]	100 to 1000 nM
CN(C)CC(C)(C)C(O)c1ncc(-c2cccc(Nc3nccc(C(F)(F)F)n3)c2)s1 (stereo not drawn) [Example 4A-8]	100 to 1000 nM
CC(O)(c1ncc(-c2cccc(Nc3nccc(C(F)(F)F)n3)c2)s1)C(F)F (stereo not drawn) [Example 4A-10]	< 100 nM
OC(c1ncc(-c2cccc(Nc3nccc(C(F)(F)F)n3)c2)s1)C1CCCC1 (stereo not drawn) [Example 4A-15]	100 to 1000 nM
CC(O)(c1cccnc1)c1ncc(-c2cccc(Nc3nccc(C(F)(F)F)n3)c2)s1 (stereo not drawn) [Example 4A-21]	< 100 nM
CC(O)(c1cnccn1)c1ncc(-c2cccc(Nc3nccc(C(F)(F)F)n3)c2)s1 (stereo not drawn) [Example 4A-22]	< 100 nM
CC(O)(c1ncc(-c2cccc(Nc3nccc(C(F)(F)F)n3)c2)s1)C1CCC1 (stereo not drawn) [Example 4A-23]	< 100 nM
CC(C)C(O)(c1ncc(-c2cccc(Nc3nccc(C(F)(F)F)n3)c2)s1)C(C)C [Example 4A-24]	100 to 1000 nM
CC(=O)OCCC(C)(O)c1ncc(-c2cccc(Nc3nccc(C(F)(F)F)n3)c2)s1 (stereo not drawn) [Example 4A-25]	100 to 1000 nM
CCOC(=O)C1(C(C)(O)c2ncc(-c3cccc(Nc4nccc(C(F)(F)F)n4)c3)s2)CC1 (stereo not drawn) [Example 4A-26]	100 to 1000 nM
OC(c1cccnc1)(c1nnco1)c1ncc(-c2cccc(Nc3nccc(C(F)(F)F)n3)c2)s1 (stereo not drawn) [Example 4A-27]	100 to 1000 nM
CCC(=O)C(O)(CC)c1ncc(-c2cccc(Nc3nccc(C(F)(F)F)n3)c2)s1 (stereo not drawn) [Example 4A-28]	100 to 1000 nM
CC(O)(c1ccc(S(C)(=O)=O)s1)c1ncc(-c2cccc(Nc3nccc(C(F)(F)F)n3)c2)s1 (stereo not drawn) [Example 4A-29]	100 to 1000 nM
OC(c1ccccn1)(c1nccs1)c1ncc(-c2cccc(Nc3nccc(C(F)(F)F)n3)c2)s1 (stereo not drawn) [Example 4A-30]	100 to 1000 nM
CC(O)(c1ncc(-c2cccc(Nc3nccc(C(F)(F)F)n3)c2)s1)C(F)(F)C(F)(F)C(F)(F)F (stereo not drawn) [Example 4A-31]	1000 to 10000 nM
COCC(C)(O)c1ncc(-c2cc(C)cc(Nc3nccc(C(F)(F)F)n3)c2)s1 (stereo not drawn) [Example 4A-32]	< 100 nM
Cc1cc(Nc2nccc(C(F)(F)F)n2)cc(-c2cnc(C(O)(CF)CF)s2)c1 [Example 4A-34]	< 100 nM
Cc1cc(Nc2nccc(C(F)(F)F)n2)cc(-c2cnc(C(C)(O)c3ncnn3C)s2)c1 (stereo not drawn) [Example 4A-35]	< 100 nM

Compound	IC50
Cc1cc(Nc2nccc(C(F)(F)F)n2)cc(-c2cnc(C(O)(C3CC3)C3CC3)s2)c1 [Example 4A-37]	< 100 nM
Cc1cc(Nc2nccc(C(F)(F)F)n2)cc(-c2cnc(C(O)(CO)CO)s2)c1 [Example 4A-38]	< 100 nM
C=CCCC(O)c1ncc(-c2cc(C)cc(Nc3nccc(C(F)(F)F)n3)c2)s1 (stereo not drawn) [Example 4A-42]	< 100 nM
C=CCCC(C)(O)c1ncc(-c2cc(C)cc(Nc3nccc(C(F)(F)F)n3)c2)s1 (stereo not drawn) [Example 4A-43]	< 100 nM
Cc1cc(Nc2nccc(C(F)(F)F)n2)cc(-c2cnc(C(C)(O)CCCN)s2)c1 (stereo not drawn) [Example 4A-46]	< 100 nM
Cc1cc(Nc2nccc(C(F)(F)F)n2)cc(-c2cnc(C(O)(c3ccccn3)C(C)C)s2)c1 (stereo not drawn) [Example 4A-49]	100 to 1000 nM
Cc1cc(Nc2nccc(C(F)(F)F)n2)cc(-c2cnc(C(C)(O)Cc3ccc(C(=O)O)cc3)s2)c1 (stereo not drawn) [Example 4A-61]	< 100 nM
Cc1cc(Nc2nccc(C(F)(F)F)n2)cc(-c2cnc(C(C)(O)c3cc(CC(=O)O)cs3)s2)c1 (stereo not drawn) [Example 4A-63]	< 100 nM
COc1cc(C(C)(O)c2ncc(-c3cc(C)cc(Nc4nccc(C(F)(F)F)n4)c3)s2)ccc1C(=O)O (stereo not drawn) [Example 4A-64]	< 100 nM
Cc1cc(Nc2nccc(C(F)(F)F)n2)cc(-c2cnc(C(C)(O)c3ccc(Br)nc3)s2)c1 (stereo not drawn) [Example 4A-70]	< 100 nM
Cc1cc(Nc2nccc(C(F)(F)F)n2)cc(-c2cnc(C(C)(O)c3ccc(S(=O)(=O)N(C)C)cc3)s2)c1 (stereo not drawn) [Example 4A-73]	100 to 1000 nM
COc1ccnc(Nc2cc(C)cc(-c3cnc(C(C)(O)c4ccc(C(=O)O)cc4)s3)c2)n1 (stereo not drawn) [Example 4A-79]	< 100 nM
Cc1cc(Nc2nccc(C(F)(F)F)n2)cc(-c2cnc(C3(O)CCC3)s2)c1 [Example 4B-1]	< 100 nM
CC1CCCC1(O)c1ncc(-c2cccc(Nc3nccc(C(F)(F)F)n3)c2)s1 (stereo not drawn) [Example 4B-2]	< 100 nM
CCOC(=O)N1C2CCC1CC(O)(c1ncc(-c3cccc(Nc4nccc(C(F)(F)F)n4)c3)s1)C2 (stereo not drawn) [Example 4B-3]	100 to 1000 nM
O=C(c1ccoc1)c1ncc(-c2cccc(Nc3nccc(C(F)(F)F)n3)c2)s1 [Example 4B-4]	100 to 1000 nM
N#CCCC1CCCCC1(O)c1ncc(-c2cccc(Nc3nccc(C(F)(F)F)n3)c2)s1 (stereo not drawn) [Example 4B-6]	100 to 1000 nM
OC1(c2ncc(-c3cccc(Nc4nccc(C(F)(F)F)n4)c3)s2)CC2COCC(C1)N2Cc1ccccc1 (stereo not drawn) [Example 4B-9]	1000 to 10000 nM
Cc1cc(Nc2nccc(C)n2)cc(-c2cnc(C3(O)C4CC5CC3CN(C5)C4)s2)c1 (stereo not drawn) [Example 4B-17]	100 to 1000 nM
